The values that follow come from patent US12319694B2, “Heterocyclic nitrogen-containing purine derivatives, pharmaceutical preparations containing these derivatives and their use in neuroprotection” (UNIVERZITA PALACKEHO, priority 2019, dated 2025).

Series [1] deals with SH-SY5Y human neuroblastoma cell line. As to the kind of experiment: Oxidative stress measurement (dihydroethidium, superoxide) in SH-SY5Y, salsolinol-induced model of PD. The format is cell-based. The following applies: 6 h. The protocol: The assay was performed in 96-well microplate with 7000 cells/well. Next day, SH-SY5Y underwent differentiation protocol for 48 h see above. Treatment procedure remained the same as in previous section (Cell treatment and viability/cytotoxicity assays). Additionally, oxidative stress (OS) inducers such as 6-hydroxydopamine (6-OHDA) and glutamate (Glu) alone were used as […]. Negative controls determined threshold of excessive OS. […] After 30 minutes, DHE was read at 500 nm/580 nm (excitation/emission). DHE is cell permeable dye which is selective toward superoxide radical detection.

Series [2] in a line: Radical scavenging activity by ORAC assay. As to conditions: NAUC relative to trolox; mean ± SD (n = 3). The protocol:
The ability of compounds to scavenge free radicals in vitro was determined by Oxygen Radical Absorbance Capacity (ORAC) method. In brief, fluorescein (100 μL, […]) and 25 μL of tested compound solution were added into each working well in a 96-well microplate preincubated at 37° C. Thereafter, 25 μL of 250 mM 2,2′-azobis(2-amidino-propan)dihydrochloride (AAPH) was quickly added, microplate was shaken for 5 s and the fluorescence (Ex. 485 nm, Em. 510 nm) was read every 3 min over 90 min by using microplate reader Infinite 200 (TECAN, Switzerland). The NAUC value (Net Area Under Curve) was used to express antioxidant activity relative to trolox (hydrophilic equivalent of vitamin E postulated as a standard). Substances with an ORAC value greater than 0 actively trap free radicals.

For series [3], the system named is SH-SY5Y human neuroblastoma cell line (differentiated phenotype). As to the kind of experiment: Calcein AM viability test on ATRA-differentiated SH-SY5Y cells. The format is cell-based. As to conditions: 24 h, DMSO control = 100%. Here is the method:
(§1) The SH-SY5Y human neuroblastoma cell line obtained as kind gift from Walter d'Acunto (originally purchased from ATCC—American Type Culture Collection (Manassas, VA, USA) was cultivated in Dulbecco's modified Eagle's Medium and Ham's F12 Nutrient Mixture (DMEM:F-12, 1:1), supplemented with 10% fetal bovine serum (FBS) and 1% penicillin and streptomycin at 37° C. in a humidified atmosphere 5% CO2, 95% air in passage limit up to ATCC+15. The assay was performed in 96-well microplate with 7000 SH-SY5Y cells per well. Next day, SH-SY5Y underwent all-trans retinoic acid (ATRA)-differentiation for 48 h (ATRA 10 μM). After 48 h, old DMEM/F12 media was removed by fresh media containing tested compounds at 0.1, 1 and 10 μM concentrations for 24 h. The tested compounds were dissolved in DMSO were added into the medium. The maximum concentration of DMSO in media was kept below 0.1% (v/v). The cell viability was measured by Calcein AM (1 mg/ml ThermoFisher) viability assay. Solution of Calcein AM in PBS (0.5 uM) was pipetted to cells and incubated for 50 minutes. After that the fluorescence was measured at 488/517 nm (excitation/emission) using microplate reader Infinite M200 (TECAN). Calcein AM assay is based on the dye-intracellular-esterase cleavage of non-fluorescent dye (Calcein AM) by living cells to fluorescent dye (Calcein), while dyeing cells that lose such ability. The values in Table 4 show % of viability, relative to control of all tested compounds. The control (medium with DMSO, <0.1% (v/v)) was postulated as 100% viability (see the first line of the table).

Another series relates to Nrf2. Description: Activation of Nrf2-dependent expression, EpRE-LUX reporter cell line. The format is cell-based. As to conditions: 24 h; tested at 100, 10, 1 and 0.1 μM, concentration of the printed value not stated; mean ± SD (n = 3). Here is the method:
The ability of compounds to activate Nrf2-dependent expression was determined by EpRE-LUX reporter cell line. In brief, compounds at 100, 10, 1 and 0.1 μM concentrations of the tested compounds were incubated for 24 h with the cells. After cells lysis (10 mM Tris, 2 mM DTT), a buffer containing 0.2 mM luciferin was added to start luminescent reaction. The increase in luminescence was measured with microplate reader Infinite M200 (TECAN). Compounds with Nrf2 value higher than 0 are strong Nrf2 activators and thus will be useful agents for the treatment of neurodegenerative diseases associated with oxidative stress.

Series [4] has as its system SH-SY5Y human neuroblastoma cell line (differentiated phenotype). As to the kind of experiment: Viability test, salsolinol-induced model of Parkinson's disease in differentiated SH-SY5Y (Calcein AM). The format is cell-based. The following applies: 24 h. The protocol:
as §1
Similarly, to the previous test the assay was performed in 96-well microplates with 7000 SH-SY5Y cells per well. Day after the seeding of cells, SH-SY5Y underwent all-trans retinoic acid (ATRA)-differentiation for 48 h (ATRA 10 μM). After 48 h, old DMEM/F12 media was removed by fresh media containing 500 μM dopaminergic neurotoxin Salsolinol (SAL) without or with tested compounds at 0.1, 1 and 10 μM concentrations. […] After 24 h the cell viability was measured by Calcein AM viability assay.

Series [5] can be described thus: Calcein AM viability test on ATRA-differentiated SH-SY5Y cells. Type of series: cell-based, human. As to conditions: human, ATRA-differentiated SH-SY5Y neuroblastoma cells, DMSO control = 100%, read-out: % of viability, relative to control. The protocol: as §1
The mark [6] stands for this setting: 0.1 μM compound with 500 μM Salsolinol.
Where [7] appears, read: 1 μM compound with 500 μM Salsolinol.
Where [8] appears, read: 10 μM compound with 500 μM Salsolinol.

With `COc1cccc(Cn2cnc3c(N4CCCC4)nc(N4CCCC4)nc32)c1` [Compound 42], the “Oxidative stress (% of control)” value is given as 171.55 % of control in series [1] (1 μM compound with SAL 500 μM) and 173.94 % of control in series [1] (10 μM compound with SAL 500 μM). Besides, the “ORAC (compound/trolox)” value in series [2] is 0.029 ± 0.002 compound/trolox. The “% of viability, relative to control” value was 112.01% in series [3] (0.1 μM compound), 127.94% in series [3] (1 μM compound) and 138.52% in series [3] (10 μM compound). Besides, the “Nrf2 (relative luminiscence)” value in the series with Nrf2 is on record as 0.00 ± 0.00 relative luminiscence. The “Neuroprotective effect (% of control)” value is 6.86 % of control in series [4] (setting [6]), 15.44 % of control in series [4] (setting [7]) and 20.05 % of control in series [4] (setting [8]).

Regarding `COc1ccccc1Cn1cnc2c(N3CCCC3)nc(N3CCCC3)nc21` [Compound 35], the entries for the “Oxidative stress (% of control)” value in series [1] (1 μM compound with SAL 500 μM) and in series [1] (10 μM compound with SAL 500 μM) were 161.97 % of control and 214.57 % of control, respectively. Also, the “ORAC (compound/trolox)” value in series [2] is recorded as 0.033 ± 0.001 compound/trolox. The “% of viability, relative to control” value in series [3] (0.1 μM compound) is given as 104.22%; in series [3] (1 μM compound) it was 118.77%; in series [3] (10 μM compound) it was 135.02%. The “Nrf2 (relative luminiscence)” value in the series with Nrf2 is recorded as 0.04 ± 0.00 relative luminiscence. Also, the “Neuroprotective effect (% of control)” value in series [4] (setting [6]) is reported as 1.19 % of control; in series [4] (setting [7]), 13.01 % of control; in series [4] (setting [8]), 19.11 % of control.

Turning to `c1ccc(Cn2cnc3c(N4CCC4)nc(N4CCC4)nc32)cc1` [Compound 1], the “Oxidative stress (% of control)” value in series [1] (1 μM compound with SAL 500 μM) is given as 124.48 % of control; in series [1] (10 μM compound with SAL 500 μM) it was 157.22 % of control. Besides, the “ORAC (compound/trolox)” value in series [2] came out at 0.052 ± 0.002 compound/trolox. Besides, the “% of viability, relative to control” value in series [3] (0.1 μM compound) is 104.80%; in series [3] (1 μM compound) it was 114.03%; in series [3] (10 μM compound) it was 145.94%. Also, in the series on Nrf2, the “Nrf2 (relative luminiscence)” value was determined as 0.27 ± 0.06 relative luminiscence. Moreover, the “Neuroprotective effect (% of control)” value is “N/A (N/A = no protection)” in series [4] (setting [6]), 3.03 % of control in series [4] (setting [7]) and 26.08 % of control in series [4] (setting [8]).

Turning to `c1ccc(Cn2cnc3c(N4CCCC4)nc(N4CCCCC4)nc32)cc1` [Compound 77, 9-Benzyl-2-(piperidin-1-yl)-6-(pyrrolidin-1-yl)-9H-purine], in series [1] (Homo sapiens, SH-SY5Y, 1 μM compound with SAL 500 μM, read-out: Oxidative stress (% of control)), the activity at 1 µM was 118%. The activity at 10 µM in series [1] (Homo sapiens, SH-SY5Y, 10 μM compound with SAL 500 μM, read-out: Oxidative stress (% of control)) is 127%. Moreover, the “ORAC (compound/trolox)” value in series [2] was 0.028 ± 0.001 compound/trolox. Also, the viability at 24 h, 0.1 µM in series [5] (0.1 μM compound) was 107%. The viability at 24 h, 1 µM in series [5] (1 μM compound) is 118%. Besides, in series [5] (10 μM compound), the viability at 24 h, 10 µM is 117%. In addition, the “Nrf2 (relative luminiscence)” value in the series with Nrf2 was found to be 0.16 ± 0.04 relative luminiscence. The “Neuroprotective effect (% of control)” value in series [4] (setting [6]) was 4.64 % of control; in series [4] (setting [7]), 12.11 % of control; in series [4] (setting [8]) it was 13.8 % of control.
